Test results published in article PMC5927461, “Activation of host transient receptor potential (TRP) channels by praziquantel stereoisomers” (PLoS Neglected Tropical Diseases, 2018).
“Also recorded” adds a separate entry of the source.

Tests used:
[1] = target: T1, TRPV1 (Homo sapiens, UniProt Q8NER1); assay: TRP channel panel primary screen (FLIPR Calcium 5, stable HEK line); assay type: cell-based; details: 0.3-300μM
Experimental: ±PZQ, (R)-PZQ and (S)-PZQ were screened against a panel of 17 human TRP channels (SB Drug Discovery, Glasgow). For all hTRPs, except for TRPM5, individual channel constructs were stably expressed in HEK cell lines. TRMP5 was expressed in a stable CHO cell line. In preparation for the assays, cells were trypsinized, counted and seeded (50,000 cells/well) in black, clear-bottomed 96 well plates and incubated overnight. The following day, cells were loaded with a fluorescent indicator (FLIPR Calcium 5 Assay kit for TRPA1, TRPV1, TRPV2, TRPV3, TRPV4, TRPV5, TRPC1, TRPM2, TRPM3 and TRPM8, or a membrane potential dye (FLIPR Membrane Potential Red Assay Kit for TRPC3, TRPC4, TRPC5, TRPC6, TRPC7, TRPM4 and TRPM5) prepared according to the manufacturer’s instructions in HEPES buffered Hank’s balanced salt solution (HBSS). Dye solution (10μl) was added to appropriate wells and incubated at 37°C for 1 hour. All assays were performed at room temperature. Compounds were tested at 0.3, 1, 3, 10, 30, 100μM and 300μM in triplicate in both agonist and antagonist mode to determine EC50 and IC50 values, which were compared with reference compounds. Compounds were screened at a final DMSO concentration of 0.5%. Plates were screened using a Flexstation (Molecular Devices, FX01138), monitoring fluorescence values every ~1.52 seconds. For ‘agonist mode’ testing, 10μl of the appropriate test compound, or standard agonist, was added after 20 seconds and fluorescence monitored for 2 minutes at λex = 485nm, λem = 525nm for Ca^2+ imaging and λex = 530nm, λem = 565nm for membrane potential measurements. For ‘antagonist mode’ testing, test compounds and standard inhibitors were added to appropriate wells and incubated for 10 minutes at room temperature prior to addition of standard agonist compound.

[2] = test system: untransfected HEK293 cells; assay: Confocal Ca2+ imaging in untransfected HEK293 cells (control); assay type: cell-based, human; details: menthol 300μM, ±PZQ 100μM, ACh 100μM, capsaicin 1μM, AITC 100μM
Experimental: (§1) HEK293 cells (ATCC CRL-1573.3) were cultured in DMEM supplemented with 10% fetal bovine serum (FBS), penicillin (100 units/ml), streptomycin (100 μg/ml), and L-glutamine (290 μg/ml). Cells were transiently transfected (Lipofectamine LTX, Thermo Fisher) at a density of 2x10^6 cells per T-25 cell-culture flask with TRP channel cDNA. For Ca^2+ imaging assays, HEK293 cells were seeded onto 8-chambered coverglass slides (Thermo Fisher, 115411PK), at a density of 1x10^4 cells one day prior to imaging. Cells were washed twice with HBSS, and incubated with fluo-4-AM (4μM), pluronic F127 (0.4%) and probenecid (2.5mM) for 25 minutes at room temperature. Cells were then washed twice with HBSS, and left at room temperature (30 minutes) for de-esterification. Dishes were mounted on an Olympus IX81 microscope and fluorescence changes (λex = 488nM, λem = 513±15nm bandpass filter) monitored using a Yogokawa spinning disk confocal (CSU-X-M1N) and an Andor iXon Ultra 888 EMCCD camera.

[3] = target: T1, TRPV1; assay: Single cell confocal Ca2+ imaging (fluo-4) in transfected HEK293 cells; assay type: cell-based; parameters: host or cells: HEK293 (ATCC CRL-1573.3), transient; details: capsaicin 1μM, ±PZQ 100μM
Excerpt: Human TRPM8 cDNA was a VersaClone from R&D Systems (RDC0188). Plasmids encoding human TRPA1 and human TRPV1 cDNA were purchased from DNASU plasmid repository (HsCD00080227 and HsCD00081472, respectively). The TRP channel coding sequences were subcloned into pCS2+ to introduce a COOH-term myc tag using the InFusion HD method (Clontech), HindIII/XhoI restriction enzymes (NEB) and the following primers: TRPM8 F–TGGGGACGTCGGAGC-aagctt-[…]; TRPM8 R–AAATCGATGGGATGC-ctcgag-[…]; TRPA1 F-GGACGTCGGAGC-aagctt- atgaagcgcagcctgagg; TRPA1 R-TCGATGGGATGC-ctcgag-[…]; TRPV1 F–GGACGTCGGAGC-aagctt-[…]; TRPV1 R-TCGATGGGATGC-ctcgag-cttctccccggaagcgg (where upper case specifies vector-specific sequences, italics indicate restriction sites, and lower case indicates TRP channel specific sequences). Primers are listed in a 5’ to 3’ orientation.
as §1

[4] = test system: mesenteric vessels isolated from a TRPM8 knockout mouse; assay: Wire myography, KPSS-contracted mesenteric vessels from TRPM8 knockout mice; details: TRPM8 KO tissue; 50μM

T1 sequence (Q8NER1 whole entry): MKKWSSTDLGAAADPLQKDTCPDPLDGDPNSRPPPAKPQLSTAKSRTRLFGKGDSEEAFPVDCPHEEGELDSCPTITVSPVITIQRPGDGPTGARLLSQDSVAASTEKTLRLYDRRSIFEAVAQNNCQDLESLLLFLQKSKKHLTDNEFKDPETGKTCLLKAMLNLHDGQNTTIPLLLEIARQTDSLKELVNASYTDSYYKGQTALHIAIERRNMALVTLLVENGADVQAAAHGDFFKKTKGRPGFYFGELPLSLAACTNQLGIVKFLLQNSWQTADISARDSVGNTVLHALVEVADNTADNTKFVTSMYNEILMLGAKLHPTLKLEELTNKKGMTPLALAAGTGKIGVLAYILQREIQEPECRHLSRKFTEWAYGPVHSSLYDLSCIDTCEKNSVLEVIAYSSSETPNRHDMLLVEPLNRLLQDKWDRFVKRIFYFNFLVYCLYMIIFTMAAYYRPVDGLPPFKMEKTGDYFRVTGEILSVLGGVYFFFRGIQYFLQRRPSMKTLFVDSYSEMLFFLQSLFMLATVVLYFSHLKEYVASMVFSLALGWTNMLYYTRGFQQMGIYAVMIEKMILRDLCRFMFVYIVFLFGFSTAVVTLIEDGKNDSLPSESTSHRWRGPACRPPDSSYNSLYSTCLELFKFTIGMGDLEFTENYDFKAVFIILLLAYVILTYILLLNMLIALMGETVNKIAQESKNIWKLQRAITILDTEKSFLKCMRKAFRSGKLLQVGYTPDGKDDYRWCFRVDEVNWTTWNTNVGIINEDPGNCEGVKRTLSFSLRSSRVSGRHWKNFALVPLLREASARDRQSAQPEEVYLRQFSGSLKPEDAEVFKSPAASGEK

| Structure (SMILES) | activity against TRPV1 in primary screen [1] | Ca2+ response in untransfected HEK293 cells [2] | Ca2+ signal in TRPV1 expressing cells [3] | extent of relaxation [4] |
| --- | --- | --- | --- | --- |
| O=C(C1CCCCC1)N1CC(=O)N2CCc3ccccc3C2C1 (racemic) [±PZQ, praziquantel] | no activity | neither ±PZQ or menthol elevated cytoplasmic Ca^2+ levels; also recorded: neither the addition of the TRPV1 agonist capsaicin (1μM) nor addition of ±PZQ evoked a Ca^2+ response; also recorded: without effect | No responses |  |
| O=C(C1CCCCC1)N1CC(=O)N2CCc3ccccc3[C@H]2C1 [(S)-PZQ] |  |  |  | ~ 30 % of peak KPSS-evoked tone |
